Test results: the OPERA property sets (Mansouri et al. 2018)
In brackets after ≈: the same amount, converted by molar mass.

Details: 20 °C

SMILES | solubility
ClC(Br)C(Cl)Br (stereo not given) | 2.73 mM (≈ 700 µg/mL)
BrCC(Br)Br | 1.87 mM (≈ 500 µg/mL)
ClC(Br)CBr (stereo not given) | 2.79 mM (≈ 620 µg/mL)

Same assay, conditions: 24 °C

SMILES | solubility
FC(F)(Cl)CCl | 6.3 mM (≈ 850 µg/mL)

Same assay, conditions: 25 °C

SMILES | solubility
BrC(Br)C(Br)Br | 1.91 mM (≈ 659 µg/mL)
ClCCBr | 48.1 mM (≈ 6900 µg/mL)
FCCCl | 296 mM (≈ 24400 µg/mL)
ClCC(Cl)Cl | 33.1 mM (≈ 4420 µg/mL)
CC(F)(Cl)Cl | 3.59 mM (≈ 420 µg/mL)
C=C(Cl)Cl | 23.2 mM (≈ 2250 µg/mL)
CCBr | 82 mM (≈ 8940 µg/mL)
ClCC(Cl)(Cl)Cl | 6.38 mM (≈ 1070 µg/mL)
CCI | 25.1 mM (≈ 3910 µg/mL)
ClC(Cl)C(Cl)(Cl)Cl | 2.37 mM (≈ 480 µg/mL)
CC(Cl)(Cl)Cl | 11.2 mM (≈ 1490 µg/mL)
FC(F)(Br)C(F)(F)Br | 0.0115 mM (≈ 3 µg/mL)
FC(F)(F)C(Cl)Cl | 13.7 mM (≈ 2100 µg/mL)
ClC(Cl)=C(Cl)Cl | 1.21 mM (≈ 200 µg/mL)
CCCl | 88 mM (≈ 5680 µg/mL)
FC(F)(F)C(Cl)Br (stereo not given) | 19.8 mM (≈ 3900 µg/mL)
